Patent US9113629B2, “4-amino-6-(4-substituted-phenyl)-picolinates and 6-amino-2-(4-substituted-phenyl)-pyrimidine-4-carboxylates and their use as herbicides” (DOW AGROSCIENCES LLC, priority 2013, dated 2015)
Like-named read-outs stand apart in the source and are kept apart here.

Columns and labels:
[1] = system: Key Broadleaf Weed and Crop Species; experiment: Post-emergent Test II herbicidal activity (Table 5); assay type: in vivo; details: post-emergence, 336 h, post-emergent, 14 days after application; for pest or weed control at 66 g/ha: 66 g ai/ha; for pest or weed control at 132 g/ha: 132 g ai/ha
How it was run: (§1)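 Percent injury, 0 (none) to 100 (complete kill), was judged visually 14 d after spraying young plants at the first or second true leaf stage with compound in an acetone/DMSO aqueous carrier at 187 L/ha. Plants were kept in a greenhouse at 23–29 °C by day.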

[2] = system: Key Grass and Sedge Weeds as well as Grass Crops; experiment: Post-emergent Test II herbicidal activity (Table 6); assay type: in vivo; details: post-emergence, 336 h; for pest or weed control at 66 g/ha: application rate 66 g ai/ha; for pest or weed control at 132 g/ha: application rate 132 g ai/ha
How it was run: as §1

[3] = ABUTH: velvetleaf (Abutilon theophrasti), read-out: Visual Growth Reduction (%) 14 Days After Application ABUTH
[4] = AMARE: redroot pigweed (Amaranthus retroflexus), read-out: Visual Growth Reduction (%) 14 Days After Application AMARE
[5] = BRSNN: oilseed-rape, canola (Brassica napus), read-out: Visual Growth Reduction (%) 14 Days After Application BRSNN
[6] = CHEAL: lambsquarters (Chenopodium album), read-out: Visual Growth Reduction (%) 14 Days After Application CHEAL
[7] = EPHHL: wild poinsettia (Euphorbia heterophylla), read-out: Visual Growth Reduction (%) 14 Days After Application EPHHL
[8] = HELAN: sunflower (Helianthus annuus), read-out: Visual Growth Reduction (%) 14 Days After Application HELAN
[9] = VIOTR: wild pansy (Viola tricolor), read-out: Visual Growth Reduction (%) 14 Days After Application VIOTR
[10] = Triticum aestivum, TRZSS (wheat), read-out: Visual Growth Reduction (%) 14 Days After Application, TRZSS
[11] = CYPES: yellow nutsedge (Cyperus esculentus), read-out: Visual Growth Reduction (%) 14 Days After Application, CYPES
[12] = DIGSA: crabgrass (Digitaria sanguinalis), read-out: Visual Growth Reduction (%) 14 Days After Application, DIGSA
[13] = ECHCG: barnyardgrass (Echinochloa crus-galli), read-out: Visual Growth Reduction (%) 14 Days After Application, ECHCG
[14] = ORYSA: rice (Oryza sativa), read-out: Visual Growth Reduction (%) 14 Days After Application, ORYSA
[15] = SETFA: giant foxtail (Setaria faberi), read-out: Visual Growth Reduction (%) 14 Days After Application, SETFA
[16] = SORVU: grain sorghum (Sorghum vulgare), read-out: Visual Growth Reduction (%) 14 Days After Application, SORVU
[17] = ZEAMX: maize, corn (Zea mays), read-out: Visual Growth Reduction (%) 14 Days After Application, ZEAMX

**Q.** Which pest or weed control at 66 g/ha [1, 3] does the source give for `COC(=O)c1nc(-c2ccc(I)c(F)c2)c(C)c(N)c1Cl` [Compound 79, Methyl 4-amino-3-chloro-6-(3-fluoro-4-iodophenyl)-5-methylpicolinate] here?
**A.** Its pest or weed control at 66 g/ha is 85 to 94%.

**Q.** And the pest or weed control at 132 g/ha [1, 3]?
**A.** Its pest or weed control at 132 g/ha is 95 to 100%.

**Q.** What about the pest or weed control at 66 g/ha [1, 4] of the same compound?
**A.** The pest or weed control at 66 g/ha was 60 to 74%.

**Q.** And the pest or weed control at 132 g/ha [1, 4]?
**A.** Its pest or weed control at 132 g/ha is 75 to 84%.

**Q.** What about the pest or weed control at 66 g/ha [1, 5] of the same compound?
**A.** Its pest or weed control at 66 g/ha is 85 to 94%.

**Q.** What about the pest or weed control at 132 g/ha [1, 5] of the same compound?
**A.** The pest or weed control at 132 g/ha was 85 to 94%.

**Q.** And the pest or weed control at 66 g/ha [1, 6]?
**A.** Its pest or weed control at 66 g/ha is 95 to 100%.

**Q.** What about the pest or weed control at 132 g/ha [1, 6] of the same compound?
**A.** The pest or weed control at 132 g/ha was 95 to 100%.

**Q.** What about the pest or weed control at 66 g/ha [1, 7] of the same compound?
**A.** Its pest or weed control at 66 g/ha is 0 to 29%.

**Q.** What about the pest or weed control at 132 g/ha [1, 7] of the same compound?
**A.** Its pest or weed control at 132 g/ha is 0 to 29%.

**Q.** And the pest or weed control at 66 g/ha [1, 8]?
**A.** The pest or weed control at 66 g/ha was 95 to 100%.

**Q.** What about the pest or weed control at 132 g/ha [1, 8] of the same compound?
**A.** Its pest or weed control at 132 g/ha is 95 to 100%.

**Q.** What about the pest or weed control at 66 g/ha [1, 9] of the same compound?
**A.** Its pest or weed control at 66 g/ha is 0 to 29%.

**Q.** What about the pest or weed control at 132 g/ha [1, 9] of the same compound?
**A.** The pest or weed control at 132 g/ha was 0 to 29%.

**Q.** What about the melting point of the same compound?
**A.** Its melting point is 121 to 124 °C.

**Q.** What about the pest or weed control at 66 g/ha [2, 10] of the same compound?
**A.** The pest or weed control at 66 g/ha was 0 to 29%.

**Q.** And the pest or weed control at 132 g/ha [2, 10]?
**A.** Its pest or weed control at 132 g/ha is 30 to 44%.

**Q.** What about the pest or weed control at 66 g/ha [2, 11] of the same compound?
**A.** Its pest or weed control at 66 g/ha is 95 to 100%.

**Q.** What about the pest or weed control at 132 g/ha [2, 11] of the same compound?
**A.** The pest or weed control at 132 g/ha was 95 to 100%.

**Q.** And the pest or weed control at 66 g/ha [2, 12]?
**A.** The pest or weed control at 66 g/ha was 60 to 74%.

**Q.** What about the pest or weed control at 132 g/ha [2, 12] of the same compound?
**A.** Its pest or weed control at 132 g/ha is 60 to 74%.

**Q.** And the pest or weed control at 66 g/ha [2, 13]?
**A.** The pest or weed control at 66 g/ha was 60 to 74%.

**Q.** And the pest or weed control at 132 g/ha [2, 13]?
**A.** Its pest or weed control at 132 g/ha is 60 to 74%.

**Q.** And the pest or weed control at 66 g/ha [2, 14]?
**A.** Its pest or weed control at 66 g/ha is 0 to 29%.

**Q.** What about the pest or weed control at 132 g/ha [2, 14] of the same compound?
**A.** Its pest or weed control at 132 g/ha is 0 to 29%.

**Q.** And the pest or weed control at 66 g/ha [2, 15]?
**A.** The pest or weed control at 66 g/ha was 75 to 84%.

**Q.** What about the pest or weed control at 132 g/ha [2, 15] of the same compound?
**A.** Its pest or weed control at 132 g/ha is 75 to 84%.

**Q.** And the pest or weed control at 66 g/ha [2, 16]?
**A.** The pest or weed control at 66 g/ha was 60 to 74%.

**Q.** What about the pest or weed control at 132 g/ha [2, 16] of the same compound?
**A.** The pest or weed control at 132 g/ha was 75 to 84%.

**Q.** And the pest or weed control at 66 g/ha [2, 17]?
**A.** The pest or weed control at 66 g/ha was 60 to 74%.

**Q.** What about the pest or weed control at 132 g/ha [2, 17] of the same compound?
**A.** The pest or weed control at 132 g/ha was 60 to 74%.
